From ChEMBL document CHEMBL6182851, “Discovery of dual CDK4/6 and BRD4 inhibitor as apoptosis and autophagy inducers against NSCLC in vitro and in vivo” (Eur J Med Chem, 2025) come the findings set out here.

Molecules are shown by their SMILES. The source made the active and inactive calls. The calls are words filed in the database; no cut-off is given here.

What is called IC50 is the midpoint of a concentration-inhibition curve. One may read the inhibition as the change of the read-out against control, counted positive when it falls. A lower inhibition goes with a weak effect.

Test [1] concerns NCI-H460. As to the kind of experiment: Induction of apoptosis in human NCI-H460 cells assessed as late apoptotic cells at 20 uM incubated for 48 hrs by Annexin V-PE/7-AAD staining based flow cytometric analysis (reference value: 3.76 %). The class given is functional. (A flow cytometer gives signals particle by particle.)
Test [2] deals with A549. As to the kind of experiment: cells. Conditions: Homo sapiens, A549, 48 h.
Description: Antitumor activity against human A549 cells assessed as inhibition of cell viability incubated for 48 hrs by MTT assay
Test [3] concerns NCI-H460. In words: Induction of cell cycle arrest in human NCI-H460 cells assessed as accumulation of cells at S phase at 20 uM in presence of ribociclib incubated for 48 hrs by PI staining based flow cytometric analysis (reference value: 33.3 %). It counts as functional.
The subject of test [4] is NCI-H460. In words: Induction of apoptosis in human NCI-H460 cells assessed as early apoptotic cells at 20 uM incubated for 48 hrs by Annexin V-PE/7-AAD staining based flow cytometric analysis (reference value: 3.58 %). The class given is functional.
Test [5] concerns NCI-H460. As to the kind of experiment: Induction of apoptosis in human NCI-H460 cells assessed as necrotic cells at 20 uM incubated for 48 hrs by Annexin V-PE/7-AAD staining based flow cytometric analysis (reference value: 0.79 %). It counts as functional.
In test [6] the test system is NCI-H460. In words: Induction of apoptosis in human NCI-H460 cells assessed as late apoptotic cells at 20 uM incubated for 48 hrs in presence of ribociclib by Annexin V-PE/7-AAD staining based flow cytometric analysis (reference value: 3.76 %). It counts as functional.
The target of test [7] is Bromodomain-containing protein 4 (Homo sapiens) (UniProt O60885). To be noted: dose 1000.0 nM.
Description: Inhibition of BRD4 BD2 (unknown origin) assessed as inhibition ratio at 1000 nM relative to control
Test [8] concerns NCI-H460. As to the kind of experiment: Induction of cell cycle arrest in human NCI-H460 cells assessed as accumulation of cells at G2 phase at 20 uM incubated for 48 hrs by PI staining based flow cytometric analysis (reference value: 11.0 %). The class given is functional.
Test [9] has as its system NCI-H460. In words: Induction of cell cycle arrest in human NCI-H460 cells assessed as accumulation of cells at G2 phase at 20 uM in presence of ribociclib incubated for 48 hrs by PI staining based flow cytometric analysis (reference value: 11.0 %). It counts as functional.
Test [10] relates to NCI-H460. As to the kind of experiment: cells. To be noted: Homo sapiens, NCI-H460, 48 h.
Description: Antitumor activity against human NCI-H460 cells assessed as inhibition of cell viability incubated for 48 hrs by MTT assay
Test [11] deals with NCI-H460. As to the kind of experiment: Induction of autophagy in human NCI-H460 cells assessed as increase in number of autophagosomes at 20 uM in presence of ribociclib incubated for 48 hrs by MDC staining and LC3B immunofluorescence analysis. It counts as functional, cell-based.
Test [12] relates to NCI-H1299. In words: Antitumor activity against human NCI-H1299 cells assessed as inhibition of cell viability incubated for 48 hrs in presence of ribociclib by MTT assay. The class given is functional, cell-based. Conditions: NCI-H1299, 48 h.
The test system of test [13] is NCI-H460. As to the kind of experiment: Induction of autophagy in human NCI-H460 cells assessed as increase in acidic vesicles at 20 uM incubated for 48 hrs by MDC staining and LC3B immunofluorescence analysis. The class given is functional, cell-based.
Test [14] has as its system NCI-H460. As to the kind of experiment: Antitumor activity against human NCI-H460 cells xenografted in female BALB/c nude mouse assessed as tumor growth inhibition at 50 mg/kg, ip administered for 21 consecutive days relative to control. It counts as functional. To be noted: NCI-H460, 504 h, time 21 day, read-out: TGI.
Test [15] concerns NCI-H460. As to the kind of experiment: Induction of cell cycle arrest in human NCI-H460 cells assessed as accumulation of cells at S phase at 20 uM incubated for 48 hrs by PI staining based flow cytometric analysis (reference value: 33.3 %). The class given is functional.
In test [16] the test system is NCI-H460. In words: Induction of cell cycle arrest in human NCI-H460 cells assessed as accumulation of cells at G1 phase at 20 uM in presence of ribociclib incubated for 48 hrs by PI staining based flow cytometric analysis (reference value: 56.7 %). It counts as functional.
The subject of test [17] is A549. In words: Antitumor activity against human A549 cells assessed as inhibition of cell viability incubated for 48 hrs in presence of ribociclib by MTT assay. It counts as functional, cell-based. Conditions: A549, 48 h.
Test [18] relates to NCI-H460. As to the kind of experiment: Induction of autophagy in human NCI-H460 cells assessed as increase in autophagosomes at 20 uM incubated for 48 hrs by MDC staining and LC3B immunofluorescence analysis. It counts as functional, cell-based.
The test system of test [19] is NCI-H1299. In words: cells. Conditions: Homo sapiens, NCI-H1299, 48 h.
Description: Antitumor activity against human NCI-H1299 cells assessed as inhibition of cell viability incubated for 48 hrs by MTT assay
The subject of test [20] is NCI-H460. In words: Induction of apoptosis in human NCI-H460 cells assessed as necrotic cells at 20 uM incubated for 48 hrs in presence of ribociclib by Annexin V-PE/7-AAD staining based flow cytometric analysis (reference value: 0.79 %). The class given is functional.
Test [21] concerns NCI-H460. In words: Induction of cell cycle arrest in human NCI-H460 cells assessed as accumulation of cells at G1 phase at 20 uM incubated for 48 hrs by PI staining based flow cytometric analysis (reference value: 56.7 %). The class given is functional.
The test system of test [22] is NCI-H460. As to the kind of experiment: Induction of apoptosis in human NCI-H460 cells assessed as early apoptotic cells at 20 uM incubated for 48 hrs in presence of ribociclib by Annexin V-PE/7-AAD staining based flow cytometric analysis (reference value: 3.58 %). It counts as functional.
The test system of test [23] is NCI-H460. In words: Antitumor activity against human NCI-H460 cells xenografted in female BALB/c nude mouse assessed as tumor growth inhibition at 50 mg/kg, ip administered for 21 consecutive days in presence of ribociclib relative to control. The class given is functional. To be noted: NCI-H460, 504 h, time 21 day, read-out: TGI. On the technique in general: Xenograft models place foreign cells or tissue in a host animal.

Test [24] deals with NCI-H460. As to the kind of experiment: Antitumor activity against human NCI-H460 cells assessed as inhibition of cell viability incubated for 48 hrs in presence of ribociclib by MTT assay. It counts as functional, cell-based. To be noted: NCI-H460, 48 h. On the technique in general: Tetrazolium dyes change colour on reduction, which living cells bring about.

For the molecule `COc1cc(OC)c2c(=O)[nH]c(-c3cc(C)c(OCCO)c(C)c3)nc2c1` [APABETALONE], the Activity with NCI-H460 [1] came out at 4.99%; in the test with NCI-H460 [3] it was 9.38%; with NCI-H460 [4] it was 2.05%; in the test on NCI-H460 [5], 1.59%; in the test with NCI-H460 [6], 5.71%; with NCI-H460 [8] it was 13%. Also, the Activity in the test on NCI-H460 [9] was 4.4%; with NCI-H460 [15], 30.1%; in the test with NCI-H460 [16], 87.9%; with NCI-H460 [20] it was 1.11%; in the test with NCI-H460 [21], 56%; with NCI-H460 [22], 13.8%. In addition, the IC50 in the test with A549 [2] was over 40 µM; with NCI-H460 [10], over 40 µM; with NCI-H1299 [12], 8.16 µM; in the test on A549 [17], 18.8 µM; with NCI-H1299 [19], 18.4 µM; with NCI-H460 [24] it was 10.3 µM. The molecule also came in with an inhibition in test [7] of 89.8%. Further, the result in the test on NCI-H460 [11], in the test with NCI-H460 [13] and in the test with NCI-H460 [18] was inactive. Besides, the values for the inhibition in vivo at 50 mg/kg in the test on NCI-H460 [14] and in the test with NCI-H460 [23] were 37.5% and 72%, respectively.
